Tested on: OVCAR-5 complex spheroids with HUVEC/MSC, viability, % test/control
Assay: Anticancer human tumor OVCAR-5 cell line growth inhibition [AhR];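 further: spheroids exposed to compounds for 7 days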;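 on viability, T/C: 100% = DMSO vehicle control wells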
Settings: for IC50: curve of first compound; for viability, T/C: stronger effect = lower value; active means viability on the fitted dose curve at most 10% of control; inactive means the rest
Outline: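 Complex tumor spheroids co-cultured with HUVEC and human MSC stroma; AhR antagonists tested in combination with standard-of-care and investigational agents. Top concentration at or near clinical Cmax (else 10 microM), half-log dilutions; growth expressed as percent test/control.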

CC[C@@]1(O)C(=O)OCc2c1cc1n(c2=O)Cc2cc3c(CN(C)C)c(O)ccc3nc2-1 + Cc1cncc(-c2nc(NCCc3c[nH]c4ccccc34)c3ncn(C(C)C)c3n2)c1
25.3 nM: IC50 (second compound 3.16 µM)
> 100 nM: IC50 (second compound 0.1 µM) | IC50 (second compound 0.316 µM) | IC50 (second compound 1 µM)
inactive: viability, T/C (second compound 0.1 µM, first compound 0.000316 µM) 100% | viability, T/C (second compound 0.1 µM, first compound 0.001 µM) 105% | viability, T/C (second compound 0.1 µM, first compound 0.00316 µM) 97.4% | viability, T/C (second compound 0.1 µM, first compound 0.01 µM) 87% | viability, T/C (second compound 0.1 µM, first compound 0.0316 µM) 49.3% | viability, T/C (second compound 0.1 µM, first compound 0.1 µM) 52.3% | viability, T/C (second compound 0.316 µM, first compound 0.000316 µM) 97.9% | viability, T/C (second compound 0.316 µM, first compound 0.001 µM) 100% | viability, T/C (second compound 0.316 µM, first compound 0.00316 µM) 92.7% | viability, T/C (second compound 0.316 µM, first compound 0.01 µM) 82.2% | viability, T/C (second compound 0.316 µM, first compound 0.0316 µM) 50% | viability, T/C (second compound 0.316 µM, first compound 0.1 µM) 52.8% | viability, T/C (second compound 1 µM, first compound 0.000316 µM) 93.6% | viability, T/C (second compound 1 µM, first compound 0.001 µM) 91.6% | viability, T/C (second compound 1 µM, first compound 0.00316 µM) 90.1% | viability, T/C (second compound 1 µM, first compound 0.01 µM) 79.9% | viability, T/C (second compound 1 µM, first compound 0.0316 µM) 48.4% | viability, T/C (second compound 1 µM, first compound 0.1 µM) 55.8% | viability, T/C (second compound 3.16 µM, first compound 0.000316 µM) 79.2% | viability, T/C (second compound 3.16 µM, first compound 0.001 µM) 79.5% | viability, T/C (second compound 3.16 µM, first compound 0.00316 µM) 77.2% | viability, T/C (second compound 3.16 µM, first compound 0.01 µM) 62.9% | viability, T/C (second compound 3.16 µM, first compound 0.0316 µM) 43.4% | viability, T/C (second compound 3.16 µM, first compound 0.1 µM) 50.5% | viability, T/C (second compound 10 µM, first compound 0.000316 µM) 22.3% | viability, T/C (second compound 10 µM, first compound 0.001 µM) 24.9% | viability, T/C (second compound 10 µM, first compound 0.00316 µM) 26.9% | viability, T/C (second compound 10 µM, first compound 0.01 µM) 16.5% | viability, T/C (second compound 10 µM, first compound 0.0316 µM) 6.78% | viability, T/C (second compound 10 µM, first compound 0.1 µM) 14.5%
< 0.316 nM: IC50 (second compound 10 µM)

CCc1c2c(nc3ccc(O)cc13)-c1cc3c(c(=O)n1C2)COC(=O)[C@]3(O)CC + Cc1cncc(-c2nc(NCCc3c[nH]c4ccccc34)c3ncn(C(C)C)c3n2)c1
active: viability, T/C (second compound 3.16 µM, first compound 0.3 µM) 8.5% | viability, T/C (second compound 10 µM, first compound 0.000949 µM) 4.99% | viability, T/C (second compound 10 µM, first compound 0.003 µM) 5.37% | viability, T/C (second compound 10 µM, first compound 0.00949 µM) 9.12% | viability, T/C (second compound 10 µM, first compound 0.03 µM) 7.96% | viability, T/C (second compound 10 µM, first compound 0.0949 µM) 4.98% | viability, T/C (second compound 10 µM, first compound 0.3 µM) 2.23%
9.8 nM: IC50 (second compound 0.1 µM)
3.77 nM: IC50 (second compound 3.16 µM)
< 0.949 nM: IC50 (second compound 10 µM)
inactive: viability, T/C (second compound 0.1 µM, first compound 0.000949 µM) 83.8% | viability, T/C (second compound 0.1 µM, first compound 0.003 µM) 59% | viability, T/C (second compound 0.1 µM, first compound 0.00949 µM) 46.3% | viability, T/C (second compound 0.1 µM, first compound 0.03 µM) 44.8% | viability, T/C (second compound 0.1 µM, first compound 0.0949 µM) 23.4% | viability, T/C (second compound 0.1 µM, first compound 0.3 µM) 9.85% | viability, T/C (second compound 0.316 µM, first compound 0.000949 µM) 80.1% | viability, T/C (second compound 0.316 µM, first compound 0.003 µM) 57.1% | viability, T/C (second compound 0.316 µM, first compound 0.00949 µM) 47.4% | viability, T/C (second compound 0.316 µM, first compound 0.03 µM) 42.3% | viability, T/C (second compound 0.316 µM, first compound 0.0949 µM) 22.8% | viability, T/C (second compound 0.316 µM, first compound 0.3 µM) 9.22% | viability, T/C (second compound 1 µM, first compound 0.000949 µM) 73.1% | viability, T/C (second compound 1 µM, first compound 0.003 µM) 51.4% | viability, T/C (second compound 1 µM, first compound 0.00949 µM) 50.7% | viability, T/C (second compound 1 µM, first compound 0.03 µM) 42.3% | viability, T/C (second compound 1 µM, first compound 0.0949 µM) 21.5% | viability, T/C (second compound 1 µM, first compound 0.3 µM) 9.57% | viability, T/C (second compound 3.16 µM, first compound 0.000949 µM) 56.8% | viability, T/C (second compound 3.16 µM, first compound 0.003 µM) 43.8% | viability, T/C (second compound 3.16 µM, first compound 0.00949 µM) 48.4% | viability, T/C (second compound 3.16 µM, first compound 0.03 µM) 40.2% | viability, T/C (second compound 3.16 µM, first compound 0.0949 µM) 21.9%
9.09 nM: IC50 (second compound 0.316 µM)
8.08 nM: IC50 (second compound 1 µM)

— PubChem BioAssay AID1919015 (Molecular Pharmacology Branch, DTP, NCI, 2023)
